Test results published in ChEMBL document CHEMBL2029260, “Structural basis of selective inhibition of human tankyrases” (J Med Chem, 2012).

Biological target: T1, Poly [ADP-ribose] polymerase tankyrase-2 (Homo sapiens, UniProt Q9H2K2)
T1 sequence (Q9H2K2 whole entry): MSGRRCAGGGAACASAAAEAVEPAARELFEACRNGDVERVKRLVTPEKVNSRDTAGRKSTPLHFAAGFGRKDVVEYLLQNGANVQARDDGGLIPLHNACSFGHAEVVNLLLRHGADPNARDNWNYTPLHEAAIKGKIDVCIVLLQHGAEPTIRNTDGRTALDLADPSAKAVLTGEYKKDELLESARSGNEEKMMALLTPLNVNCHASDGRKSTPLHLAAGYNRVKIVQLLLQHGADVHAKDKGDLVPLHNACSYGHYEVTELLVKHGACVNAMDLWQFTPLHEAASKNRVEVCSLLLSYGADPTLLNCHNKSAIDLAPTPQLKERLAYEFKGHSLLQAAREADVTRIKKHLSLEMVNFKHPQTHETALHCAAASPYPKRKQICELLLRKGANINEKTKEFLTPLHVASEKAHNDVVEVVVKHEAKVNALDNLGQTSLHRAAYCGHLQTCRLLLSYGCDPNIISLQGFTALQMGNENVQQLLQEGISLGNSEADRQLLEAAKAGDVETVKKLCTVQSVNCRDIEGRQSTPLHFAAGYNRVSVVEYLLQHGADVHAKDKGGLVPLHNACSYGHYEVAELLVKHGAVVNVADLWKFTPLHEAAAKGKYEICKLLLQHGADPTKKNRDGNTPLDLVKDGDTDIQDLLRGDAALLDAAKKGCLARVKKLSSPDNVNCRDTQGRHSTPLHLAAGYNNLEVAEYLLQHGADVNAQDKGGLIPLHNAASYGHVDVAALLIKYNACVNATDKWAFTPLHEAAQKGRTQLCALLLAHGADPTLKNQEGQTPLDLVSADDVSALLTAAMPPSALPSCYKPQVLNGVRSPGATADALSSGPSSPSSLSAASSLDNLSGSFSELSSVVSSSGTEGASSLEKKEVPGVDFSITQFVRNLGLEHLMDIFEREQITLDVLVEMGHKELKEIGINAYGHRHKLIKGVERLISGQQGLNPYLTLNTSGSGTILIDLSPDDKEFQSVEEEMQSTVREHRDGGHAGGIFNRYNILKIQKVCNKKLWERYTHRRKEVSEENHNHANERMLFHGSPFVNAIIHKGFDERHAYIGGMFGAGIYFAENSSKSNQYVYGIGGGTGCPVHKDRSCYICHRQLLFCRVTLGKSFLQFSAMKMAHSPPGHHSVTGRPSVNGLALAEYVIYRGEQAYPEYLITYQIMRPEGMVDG
Assay: Activity of N-terminus hexaHis-tagged human TNSK2 expressed in Escherichia coli BL21 (DE3) cells using biotinylated NAD+ as substrate after 90 mins by Western blot analysis

EC50 [µM]	SMILES
10	O=C(NCc1ccncc1)c1ccc(N2C(=O)[C@@H]3[C@H](C2=O)[C@@H]2C=C[C@H]3C2)cc1
2	CO[C@H]1CCCC[C@@H]1NC(=O)c1ccc(N2C(=O)[C@@H]3[C@H](C2=O)[C@@H]2C=C[C@H]3C2)cc1
1	O=C(Nc1ccc(Br)cc1)c1ccc(N2C(=O)[C@@H]3[C@H](C2=O)[C@@H]2C=C[C@H]3C2)cc1
20	O=C(NCc1ccccc1)c1ccc(N2C(=O)[C@@H]3[C@H](C2=O)[C@@H]2C=C[C@H]3C2)cc1
> 25	O=C(NC1CCCCC1)c1ccc(N2C(=O)[C@@H]3[C@H](C2=O)[C@@H]2C=C[C@H]3C2)cc1
> 25	O=C(Nc1ccccc1)c1ccc(N2C(=O)[C@@H]3[C@H](C2=O)[C@@H]2C=C[C@H]3C2)cc1
